Where no end group is shown, it is not given here. [ ]: non-standard residue; d: D form. Hyp = O=C(O)[C@@H]1C[C@@H](O)CN1
System: platelet membranes
Assay: Linkage of tritiated nonapeptide to platelet membranes (filtration)
Type: binding
Details: for Linkage (%) after dissociation time: Table IX
Protocol: The study of the nature of the interaction between type III collagen and platelets is carried out in the presence of tritiated (labelled) nonapeptide of formula: […]
The complete platelets or the platelet membranes solubilized in triton (0.15%) are incubated in a physiological buffer of the type described above in the serotonin release test (in a total volume of 0.2 ml) at a temperature of 37° C. for 15 minutes. The incubation is carried out in presence of tritiated nonapeptide the specific activity of which is of […].
The nonapeptide fixed or linked to the platelet or to the membranes is separated from the free nonapeptide by filtration of the incubation medium through multiporous membranes having porosities of 0.8μ and 0.45μ respectively. The radio activity is directly determined on the filters and the percentage of linkages determined according to the following formula: [formula]
(c) Table VIII relates to the linkage specificity. It represents the linkage percentages between the platelet membranes and different peptides of the invention in the presence of various aggregation inducers (15 ng of peptide, 30 μg of platelet membrane).
The specificity of the linkage is assessed by the total displacement of the corresponding radio-activity by an excess of non labelled peptide of the invention. This excess corresponds to an amount of 100 to 1000 times more than the amount of non labelled peptide which is necessary to induce adhesion of the platelets.
Said reversibility has been studied in the presence of two concentrations of labelled (nona)peptide which are respectively of 3 and 6 ng, for 30 μg of platelet membranes. After the binding of the labelled nonapeptide to the membranes, the incubation media are diluted to the 80 volumes:
in the absence of non labelled (nona)peptide;
and in the presence of an excess of non labelled (nona)peptide (as indicated under c) for the reversibility test).
The percentage of linkage is then determined as a function of an incubation duration ranging from 0 to 15 minutes.
The reversibility is measured by the dissociation factor and the dissociation time.

Nc1ncnc2c1ncn2[C@@H]1O[C@H](COP(=O)(O)OP(=O)(O)O)[C@@H](O)[C@H]1O [ADP, reference compound]
Linkage % of Nonapeptide H^3 in presence of agent (Table VIII, Nonapeptide H^3 15 ng, platelet membranes 30 μg, agent 10^-2 M): 4.3%

CNCC(O)c1ccc(O)c(O)c1 (stereo not shown) [Adrenaline, reference compound]
Linkage % of Nonapeptide H^3 in presence of agent (Table VIII, Nonapeptide H^3 15 ng, platelet membranes 30 μg, agent 100 μg): 5.4%

CCCCC/C=C\C/C=C\C/C=C\C/C=C\CCCC(=O)O [Arachidonic acid, reference compound]
Linkage % of Nonapeptide H^3 in presence of agent (Table VIII, Nonapeptide H^3 15 ng, platelet membranes 30 μg, agent 6 nM): 4.1%

GK[Hyp]GE[Hyp]GPK [Nonapeptide H^3]
Linkage (%) after dissociation time (Nonapeptide H^3 3 ng, 30 μg membranes, dilution 1/80, 0'): 3.2% | Linkage (%) after dissociation time (Nonapeptide H^3 3 ng, dilution 1/80 + 100 μg of nonapeptide, 0'): 3.2% | Linkage (%) after dissociation time (Nonapeptide H^3 3 ng, dilution 1/80 + 100 μg of nonapeptide, 2'): 1% | Linkage (%) after dissociation time (Nonapeptide H^3 3 ng, dilution 1/80 + 100 μg of nonapeptide, 10'): 0.5% | Linkage (%) after dissociation time (Nonapeptide H^3 3 ng, dilution 1/80 + 100 μg of nonapeptide, 15'): 0.1% | Linkage (%) after dissociation time (Nonapeptide H^3 3 ng, dilution 1/80, 2'): 1.75% | Linkage (%) after dissociation time (Nonapeptide H^3 3 ng, dilution 1/80, 5'): 1.55% | Linkage (%) after dissociation time (Nonapeptide H^3 3 ng, dilution 1/80, 10'): 1% | Linkage (%) after dissociation time (Nonapeptide H^3 3 ng, dilution 1/80, 15'): 0.6% | Linkage (%) after dissociation time (Nonapeptide H^3 6 ng, dilution 1/80 + 100 μg of nonapeptide, 0'): 5.9% | Linkage (%) after dissociation time (Nonapeptide H^3 6 ng, dilution 1/80 + 100 μg of nonapeptide, 2'): 3% | Linkage (%) after dissociation time (Nonapeptide H^3 6 ng, dilution 1/80 + 100 μg of nonapeptide, 10'): 1.5% | Linkage (%) after dissociation time (Nonapeptide H^3 6 ng, dilution 1/80 + 100 μg of nonapeptide, 15'): 1% | Linkage (%) after dissociation time (Nonapeptide H^3 6 ng, dilution 1/80, 0'): 5.9% | Linkage (%) after dissociation time (Nonapeptide H^3 6 ng, dilution 1/80, 2'): 4.8% | Linkage (%) after dissociation time (Nonapeptide H^3 6 ng, dilution 1/80, 5'): 3% | Linkage (%) after dissociation time (Nonapeptide H^3 6 ng, dilution 1/80, 10'): 2.4% | Linkage (%) after dissociation time (Nonapeptide H^3 6 ng, dilution 1/80, 15'): 1.5% | Linkage (%) (Table VI, Nonapeptide H^3 3 ng, proteic concentration 20 μg): 2.1% | Linkage (%) (Table VI, Nonapeptide H^3 3 ng, proteic concentration 40 μg): 3.8% | Linkage (%) (Table VI, Nonapeptide H^3 3 ng, proteic concentration 60 μg): 4.3% | Linkage (%) (Table VI, Nonapeptide H^3 3 ng, proteic concentration 80 μg): 4.6% | Linkage (%) (Table VI, Nonapeptide H^3 3 ng, proteic concentration 100 μg): 5.3% | Linkage (%) (Table VI, Nonapeptide H^3 30 ng, proteic concentration 20 μg): 3.5% | Linkage (%) (Table VI, Nonapeptide H^3 30 ng, proteic concentration 40 μg): 4.3% | Linkage (%) (Table VI, Nonapeptide H^3 30 ng, proteic concentration 60 μg): 5% | Linkage (%) (Table VI, Nonapeptide H^3 30 ng, proteic concentration 80 μg): 5.8% | Linkage (%) (Table VI, Nonapeptide H^3 30 ng, proteic concentration 100 μg): 6.15% | Linkage (%) (Table VI, Nonapeptide H^3 30 ng, proteic concentration 200 μg): 10.4% | Linkage (%) (Table VI, Nonapeptide H^3 30 ng, proteic concentration 400 μg): 13% | Linkage (%) (Table VI, Nonapeptide H^3 30 ng, proteic concentration 450 μg): 13.8% | Linkage (%) (Table VII, Nonapeptide H^3 3 ng): 1.6% | Linkage (%) (Table VII, Nonapeptide H^3 6 ng): 3.5% | Linkage (%) (Table VII, Nonapeptide H^3 12 ng): 5.5% | Linkage (%) (Table VII, Nonapeptide H^3 60 ng): 7.5% | Linkage (%) (Table VII, Nonapeptide H^3 300 ng): 10.5% | Linkage (%) (Table VIII, Nonapeptide H^3 15 ng, platelet membranes 30 μg, agent 0): 4%

Source: patent publication US4474761A, “Oligopeptides with specific inhibiting properties of collagen induced aggregation, process for preparing the same and pharmaceutical compositions containing them” (Choay S.A., priority 1980, dated 1984)
